Reference: patent US8377884B2, “Variants of C-type natriuretic peptides” (Biomarin Pharmaceutical Inc., priority 2007, dated 2013)
Read-outs that look alike come from different tables or passages of the source. Bridge positions count the residues as written; N and C are the ends. Peptide text beside a SMILES is read from it. * marks the point of attachment. PEG12 = NCCOCCOCCOCCOCCOCCOCCOCCOCCOCCOCCOCCOCCC(=O)O; Biotin = O=C1N[C@H]2[C@H](CS[C@H]2CCCCC(=O)*)N1; Heptanoyl = CCCCCCC(=O)*

Assays:
[1] = molecular target: T1, NPR-B (Mus musculus, UniProt Q6VVW5); assay: Stimulation of cGMP production in NIH3T3 cells; assay type: cell-based, Murine; settings: for cGMP response relative to 1 uM CNP22 (%) at 0.01 µM: read-out: cGMP Response rel. to 1 uM CNP22, 10 nM; for cGMP response relative to 1 uM CNP22 (%) at 1 µM: read-out: cGMP Response rel. to 1 uM CNP22, 1 uM
T1 construct: Murine NIH3T3 cells express endogenously the CNP signaling receptor, NPR-B; endogenous in cells; host or cells: NIH3T3 (murine fibroblasts)
T1 sequence (Q6VVW5 17-1047): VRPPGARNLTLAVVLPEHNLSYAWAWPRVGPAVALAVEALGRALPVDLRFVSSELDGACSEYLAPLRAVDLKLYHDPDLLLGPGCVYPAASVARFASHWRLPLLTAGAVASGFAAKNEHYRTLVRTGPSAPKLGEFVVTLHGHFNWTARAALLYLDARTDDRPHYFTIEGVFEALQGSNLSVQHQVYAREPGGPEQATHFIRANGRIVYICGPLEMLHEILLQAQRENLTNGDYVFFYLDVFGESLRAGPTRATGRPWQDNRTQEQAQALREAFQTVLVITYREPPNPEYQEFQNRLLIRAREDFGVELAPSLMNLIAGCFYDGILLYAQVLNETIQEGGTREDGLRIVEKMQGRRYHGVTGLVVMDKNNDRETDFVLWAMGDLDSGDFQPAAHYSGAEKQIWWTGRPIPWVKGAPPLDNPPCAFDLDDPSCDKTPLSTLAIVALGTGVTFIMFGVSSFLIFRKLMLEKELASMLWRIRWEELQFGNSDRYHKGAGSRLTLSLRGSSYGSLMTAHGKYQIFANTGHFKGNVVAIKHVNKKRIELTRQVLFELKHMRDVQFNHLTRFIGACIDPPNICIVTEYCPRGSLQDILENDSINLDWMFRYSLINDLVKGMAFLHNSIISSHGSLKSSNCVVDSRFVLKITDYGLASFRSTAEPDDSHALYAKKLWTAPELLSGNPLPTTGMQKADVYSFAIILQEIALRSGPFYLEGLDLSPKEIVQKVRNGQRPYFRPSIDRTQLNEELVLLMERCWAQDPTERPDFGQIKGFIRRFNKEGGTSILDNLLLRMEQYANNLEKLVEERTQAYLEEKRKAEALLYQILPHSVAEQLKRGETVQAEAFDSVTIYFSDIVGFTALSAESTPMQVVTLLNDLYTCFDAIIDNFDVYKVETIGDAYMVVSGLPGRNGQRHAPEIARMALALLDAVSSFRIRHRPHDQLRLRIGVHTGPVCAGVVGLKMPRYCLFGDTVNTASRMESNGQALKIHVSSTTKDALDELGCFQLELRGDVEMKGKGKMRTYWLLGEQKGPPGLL

[2] = molecular target: neutral endopeptidase (NEP) (Homo sapiens, UniProt P08473); assay: In vitro neutral endopeptidase (NEP) cleavage assay; settings: human, pH 7
neutral endopeptidase (NEP), sequence (P08473 whole entry): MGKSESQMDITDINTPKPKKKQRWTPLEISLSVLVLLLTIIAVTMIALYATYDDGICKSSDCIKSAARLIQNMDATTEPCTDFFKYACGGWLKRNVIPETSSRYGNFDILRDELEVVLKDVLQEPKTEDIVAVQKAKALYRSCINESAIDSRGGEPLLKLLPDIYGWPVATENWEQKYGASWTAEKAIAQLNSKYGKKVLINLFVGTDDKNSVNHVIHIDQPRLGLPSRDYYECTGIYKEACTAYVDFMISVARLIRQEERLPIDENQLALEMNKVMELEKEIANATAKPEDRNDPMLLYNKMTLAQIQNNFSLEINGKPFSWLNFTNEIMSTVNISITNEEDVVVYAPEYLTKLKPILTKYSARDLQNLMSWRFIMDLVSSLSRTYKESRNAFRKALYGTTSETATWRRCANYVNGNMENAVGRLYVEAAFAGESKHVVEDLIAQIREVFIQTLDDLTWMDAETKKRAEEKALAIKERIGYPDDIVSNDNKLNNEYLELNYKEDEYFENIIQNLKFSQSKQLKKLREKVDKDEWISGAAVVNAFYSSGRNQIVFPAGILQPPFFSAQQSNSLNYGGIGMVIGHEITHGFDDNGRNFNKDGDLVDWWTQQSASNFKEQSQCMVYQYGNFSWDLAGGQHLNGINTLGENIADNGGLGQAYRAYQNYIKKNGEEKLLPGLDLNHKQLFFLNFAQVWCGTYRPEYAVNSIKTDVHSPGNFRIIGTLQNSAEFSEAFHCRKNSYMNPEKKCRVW
Description: To determine the effects of amino acid substitutions, amino acid extensions, backbone modifications, side chain modifications and PEGylation on the susceptibility of CNP variants to neutral endopeptidase (NEP) cleavage, peptide cleavage assays were carried out using an in vitro assay that monitored disappearance of the non-cleaved CNP variant.
Recombinant human NEP (1 ug/mL final concentration) was added to 100 uM CNP variant diluted in 0.1 M Tris, pH 7. The reaction mixture was incubated at 37° C. for various periods of time, and the reaction was quenched with EDTA (10 mM final) followed by heat denaturation. The reaction mixture was reduced and then the reaction products were analyzed using HPLC and mass spectroscopy. The half-life of the CNP variant was calculated based on the disappearance of intact CNP variant over time.

[3] = NIH3T3 cells, 10 nM natriuretic peptide, normalized to cell number and cGMP production with 1 uM wtCNP22
[4] = NIH3T3 cells, 1 uM natriuretic peptide, normalized to cell number and cGMP production with 1 uM wtCNP22
[5] = recombinant human neutral endopeptidase (NEP)

cGMP response relative to 1 uM CNP22 (%) at 0.01 µM [1, 3]	cGMP response relative to 1 uM CNP22 (%) at 1 µM [1, 4]	half-life at 100 uM [2, 5]	SMILES	cGMP response relative to 1 uM CNP22 (%) at 0.01 µM ([1]; NIH3T3, […])	cGMP response relative to 1 uM CNP22 (%) at 1 µM ([1]; NIH3T3, […])	half-life at 100 uM [2]
			CC[C@H](C)[C@@H]1NC(=O)[C@H](CCCNC(=N)N)NC(=O)[C@H](CC(=O)O)NC(=O)[C@H](CC(C)C)NC(=O)[C@H](CCCCN)NC(=O)[C@H](CC(C)C)N(C)C(=O)CNC(=O)[C@H](Cc2ccccc2)NC(=O)[C@@H](NC(=O)CNC(=O)[C@H](CCCCN)NC(=O)[C@H](CO)NC(=O)[C@H](CC(C)C)NC(=O)CN)CSSC[C@@H](C(=O)O)NC(=O)CNC(=O)[C@H](CC(C)C)N(C)C(=O)CNC(=O)[C@H](CO)NC(=O)[C@H](CCSC)NC(=O)[C@H](CO)NC(=O)CNC1=O [K]	1%	1%	1.33 h
			CC[C@H](C)[C@@H]1NC(=O)[C@H](CCCNC(=N)N)NC(=O)[C@H](CC(=O)O)NC(=O)[C@H](CC(C)C)NC(=O)[C@H](CCCCN)NC(=O)[C@H](CC(C)C)NC(=O)CNC(=O)[C@H](Cc2ccccc2)NC(=O)[C@@H](NC(=O)CNC(=O)[C@H](CCCCN)NC(=O)[C@H](CO)NC(=O)[C@H](CC(C)C)NC(=O)CNC(=O)CCOCCOCCOCCOCCOCCOCCOCCOCCOCCOCCOCCOCCNC(=O)CCCC[C@@H]2SC[C@@H]3NC(=O)N[C@@H]32)CSSC[C@@H](C(=O)O)NC(=O)CNC(=O)[C@H](CC(C)C)NC(=O)CNC(=O)[C@H](CO)NC(=O)[C@H](CCSC)NC(=O)[C@H](CO)NC(=O)CNC1=O [(PEO12)-Biotin-CNP22]	19%	81%	2.33 h
27 ± 1%	88 ± 1%		CC[C@H](C)[C@@H]1NC(=O)[C@H](CCCNC(=N)N)NC(=O)[C@H](CC(=O)O)NC(=O)[C@H](CC(C)C)NC(=O)[C@H](CCCCN)NC(=O)[C@H](CC(C)C)NC(=O)CNC(=O)[C@H](Cc2ccccc2)NC(=O)[C@@H](NC(=O)CNC(=O)[C@H](CCCNC(=N)N)NC(=O)[C@H](CO)NC(=O)[C@H](CC(C)C)NC(=O)CNC(=O)[C@H](CO)NC(=O)[C@H](CO)NC(=O)[C@H](CC(N)=O)NC(=O)[C@H](C)NC(=O)CN)CSSC[C@@H](C(=O)O)NC(=O)CNC(=O)[C@H](CC(C)C)NC(=O)CNC(=O)[C@H](CO)NC(=O)[C@H](CCSC)NC(=O)[C@H](CO)NC(=O)CNC1=O [CG] (H-GANSSGLSRGCFGLKLDRIGSMSGLGC-OH; disulfide 11-27 (inferred); N-terminus and C-terminus assumed)			1.58 h
59%	121%	1.33 h	CC[C@H](C)[C@@H]1NC(=O)[C@H](CCCNC(=N)N)NC(=O)[C@H](CC(=O)O)NC(=O)[C@H](CC(C)C)NC(=O)[C@H](CCCCN)NC(=O)[C@H](CC(C)C)NC(=O)CNC(=O)[C@H](Cc2ccccc2)NC(=O)[C@@H](NC(=O)CNC(=O)[C@H](CCCNC(=N)N)NC(=O)[C@H](CO)NC(=O)[C@H](CC(C)C)NC(=O)CN)CSSC[C@@H](C(=O)O)NC(=O)CNC(=O)[C@H](CC(C)C)NC(=O)CNC(=O)[C@H](CO)NC(=O)[C@H](CCSC)NC(=O)[C@H](CO)NC(=O)CNC1=O [AH] (H-GLSRGCFGLKLDRIGSMSGLGC-OH; disulfide 6-22 (inferred); N-terminus and C-terminus assumed)			
38 ± 10%	113 ± 10%		CC[C@H](C)[C@@H]1NC(=O)[C@H](CCCNC(=N)N)NC(=O)[C@H](CC(=O)O)NC(=O)[C@H](CC(C)C)NC(=O)[C@H](CCCCN)NC(=O)[C@H](CC(C)C)NC(=O)CNC(=O)[C@H](Cc2ccccc2)NC(=O)[C@@H](NC(=O)CNC(=O)[C@H](CCCNC(=N)N)NC(=O)[C@H](CO)NC(=O)[C@H](CC(C)C)NC(=O)CNC(=O)[C@H](CCCNC(=N)N)NC(=O)[C@@H](N)CCC(=O)O)CSSC[C@@H](C(=O)O)NC(=O)CNC(=O)[C@H](CC(C)C)NC(=O)CNC(=O)[C@H](CO)NC(=O)[C@H](CCSC)NC(=O)[C@H](CO)NC(=O)CNC1=O [BA] (H-ERGLSRGCFGLKLDRIGSMSGLGC-OH; disulfide 8-24 (inferred); N-terminus and C-terminus assumed)			1.5 h
			CC[C@H](C)[C@@H]1NC(=O)[C@H](CCCNC(=N)N)NC(=O)[C@H](CC(=O)O)NC(=O)[C@H](CC(C)C)NC(=O)[C@H](CCCCN)NC(=O)[C@H](CC(C)C)NC(=O)CNC(=O)[C@H](Cc2ccccc2)NC(=O)[C@@H](NC(=O)CNC(=O)CNC(=O)[C@H](CO)NC(=O)[C@H](CC(C)C)NC(=O)CNC(=O)CCOCCOCCOCCOCCOCCOCCOCCOCCOCCOCCOCCOCCNC(=O)CCCC[C@@H]2SC[C@@H]3NC(=O)N[C@@H]32)CSSC[C@@H](C(=O)O)NC(=O)CNC(=O)[C@H](CC(C)C)NC(=O)CNC(=O)[C@H](CO)NC(=O)[C@H](CCSC)NC(=O)[C@H](CO)NC(=O)CNC1=O [(PEO12)-Biotin-CNP22, K4G] ({Biotin-PEG12}-GLSGGCFGLKLDRIGSMSGLGC-OH; disulfide 6-22; C-terminus assumed)	10%	27%	1.67 h
			CCCCCCC(=O)N[C@@H](CCC(=O)O)C(=O)N[C@@H](CC(C)C)C(=O)N[C@@H](CO)C(=O)N[C@@H](CCCCN)C(=O)NCC(=O)N[C@H]1CSSC[C@@H](C(=O)O)NC(=O)CNC(=O)[C@H](CC(C)C)NC(=O)CNC(=O)[C@H](CO)NC(=O)[C@H](CCSC)NC(=O)[C@H](CO)NC(=O)CNC(=O)[C@H]([C@@H](C)CC)NC(=O)[C@H](CCCNC(=N)N)NC(=O)[C@H](CC(=O)O)NC(=O)[C@H](CC(C)C)NC(=O)[C@H](CCCCN)NC(=O)[C@H](CC(C)C)NC(=O)CNC(=O)[C@H](Cc2ccccc2)NC1=O [BB] (Heptanoyl-ELSKGCFGLKLDRIGSMSGLGC-OH; disulfide 6-22 (inferred); C-terminus assumed)	32 ± 4%	84 ± 19%	0.75 to 1.08 h
11%	54%	1 h	CC[C@H](C)[C@@H]1NC(=O)[C@H](CCCNC(=N)N)NC(=O)[C@H](CC(=O)O)NC(=O)[C@H](CC(C)C)NC(=O)[C@H](CCCCN)NC(=O)[C@H](CC(C)C)NC(=O)CNC(=O)[C@H](Cc2ccccc2)NC(=O)[C@@H](NC(=O)CNC(=O)[C@H](CCC(=O)O)NC(=O)[C@H](CO)NC(=O)[C@H](CC(C)C)NC(=O)[C@@H](N)CCC(=O)O)CSSC[C@@H](C(=O)O)NC(=O)CNC(=O)[C@H](CC(C)C)NC(=O)CNC(=O)[C@H](CO)NC(=O)[C@H](CCSC)NC(=O)[C@H](CO)NC(=O)CNC1=O [AT] (H-ELSEGCFGLKLDRIGSMSGLGC-OH; disulfide 6-22 (inferred); N-terminus and C-terminus assumed)			
